Data as given in patent publication US20080299123A1, “TREATMENT OF CHEMOTHERAPY- OR RADIOTHERAPY-RESISTANT TUMORS” (Deutsches Krebsforschungszentrum Stiftung des offentlichen …, priority 2006, published 2008).

Test system: PT45-P1res cells
Assay: Caspase-3/-7 assay in PT45-P1res cells
Assay type: cell-based, human
Conditions: inhibitor 10 μmol/L, 20 μg/mL etoposide 24 hours
Method: (a) PT45-P1 res cells were transfected with control siRNA or with two L1CAM specific siRNAs. Western blotting for the detection of full-length L1CAM or of HSP90 as a control for equal protein load was performed (upper panel). In parallel, siRNA transfected PT45-P1res cells were treated with 20 μg/mL etoposide or not for 24 hours and caspase-3/-7 activity was determined. (b) siRNA transfected PT45-P1res cells were subjected to L1CAM immunostaining (L1-11A antibody) or staining with an isotype matched control antibody followed by flow cytometry. One representative histogram is shown. (c) siRNA transfected PT45-P1res cells were analysed by western blotting for the detection of full-length L1 CAM, αv-integrin or HSP90 (d) After overnight siRNA transfection, cells were either left untreated or were either treated with 20 μg/mL etoposide or with 5 μg/mL gemcitabine for 24 hours, followed by either AnnexinV/PI staining and flow cytometry (AnnexinV positive cells over basal) or by caspase-3/-7 assay (n-fold induced caspase-3/-7 activity of basal). (e) PT45-P1res cells were either left untreated (w/o) or were treated with 20 μg/mL etoposide in the absence (w/o) or presence of either 5 μg/mL anti L1CAM antibody (Clone L1-11A) or 5 μg/mL isotype matched control antibody. After 24 hours, cells were analysed by AnnexinV/PI staining or by caspase-3/-7 assay. Means±SD from three independent experiments are shown. * indicates p<0.05.
As described elsewhere (Sebens Müerköster et al., 2006), apoptosis was determined by staining with annexinV/propidium iodide (Biocarta, Hamburg, Germany) and subsequent fluorescence flow cytometry (GalaxyArgon Plus; DAKO Cytomation, Hamburg, Germany) using the FLOMAX software, and by the detection of caspase-3/-7 activity using a homogeneous luminescent assay (Promega, Mannheim, Germany). All samples were measured in duplicates.
For L1CAM transfection, PT45-P1 cells were seeded into 6 well plates (2×10^5 cells/well), were grown overnight, followed by transfection with 5 μL/well DIMRIE reagent (Invitrogen) and 0.6 μg/well of the following plasmids: pcDNA3.1 (mock) or pcDNA3.1-L1CAM (L1CAM). Upon transfection for 18 hours, 1 mL medium containing 20% FCS was added and cells were left untreated or were treated as indicated for further 24 hours. For knock down of L1CAM, PT45-P1res cells were seeded into 12 well plates (1×10^5 cells/well), were grown overnight followed by transfection with 12 μL/well RNAiFect reagent (Invitrogen) and 2 μg/well of either Stealth negative control siRNA (Invitrogen) or Stealth L1CAM siRNA (Invitrogen). After overnight transfection, cells were either left untreated or treated as indicated for further 24 hours.

`CC(C)C[C@H](CC(=O)NO)C(=O)N[C@@H](Cc1ccc2ccccc2c1)C(=O)N[C@@H](C)C(N)=O` [TAPI-0] was tested, and the “apoptosis induction after etoposide treatment (caspase-3/-7)” value was “did not significantly affect apoptosis induction after etoposide treatment”.
